Measured values published in PMC9877316, “Identification of a novel P2X7 antagonist using structure-based virtual screening” (Frontiers in Pharmacology, 2023).
“Also recorded” adds a separate entry of the source. Where two headings read alike, the source gives them in different places.

Key:
human P2X7 = target: T1, human P2X7 (Homo sapiens, UniProt Q99572); assay: ATP-induced YoPro-1 dye uptake assay, human P2X7; assay type: cell-based; details: for inhibition at 30 µM: 300 µM ATP; for reduction in ATP-induced dye uptake at human P2X7: 30 µM compound, 300 μM ATP
T1 construct: expressed in transfected cells; host or cells: 1321N1 astrocytoma cells (compounds 1-17); HEK-293 cells stably expressing human P2X7 (gift of E. Adinolfi)
T1 sequence (Q99572 1-595): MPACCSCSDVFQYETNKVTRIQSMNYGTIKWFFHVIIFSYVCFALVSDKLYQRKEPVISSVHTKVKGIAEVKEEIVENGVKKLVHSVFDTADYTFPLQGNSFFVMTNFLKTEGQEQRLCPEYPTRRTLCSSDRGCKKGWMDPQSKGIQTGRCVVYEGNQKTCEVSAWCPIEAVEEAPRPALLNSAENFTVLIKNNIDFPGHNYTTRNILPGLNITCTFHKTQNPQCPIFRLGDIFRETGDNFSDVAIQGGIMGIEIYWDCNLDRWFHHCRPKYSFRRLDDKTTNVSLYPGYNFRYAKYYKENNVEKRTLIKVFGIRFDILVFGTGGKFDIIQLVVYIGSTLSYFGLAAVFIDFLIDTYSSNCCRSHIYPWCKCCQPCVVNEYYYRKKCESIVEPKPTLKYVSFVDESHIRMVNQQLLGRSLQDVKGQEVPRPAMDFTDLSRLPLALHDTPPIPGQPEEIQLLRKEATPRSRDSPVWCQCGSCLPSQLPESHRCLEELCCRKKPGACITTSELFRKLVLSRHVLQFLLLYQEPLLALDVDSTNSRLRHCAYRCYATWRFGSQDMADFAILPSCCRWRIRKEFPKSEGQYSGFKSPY
Description: (§1) 1321N1 astrocytoma cells and HEK-293 cells were cultured (at 37°C, 5% CO2) in Dulbecco’s modified Eagle’s medium (DMEM/F-12 with Glutamax) supplemented with 10% foetal bovine serum (FBS) and 200 unit/ml of penicillin and streptomycin antibiotics (Fisher Scientific). For stable cell line generation, cells were transfected using FuGene HD Transfection Reagent (Promega) according to the manufacturer’s protocol with plasmids encoding either human P2X4 with a C-terminal (His)10 tag ([Young et al., 2008]), human P2X7 with a C-terminal EYMPME tag (kindly provided by R.A. North) or rat P2X7 C-terminally tagged with a GFP-(His)8 tag, generated by PCR amplification of the coding sequence for rat P2X7 from a pcDNA-based expression vector ([Young et al., 2007]), adding XhoI and EcoRI sites at the 5′- and 3′- ends respectively, followed by restriction digestion and ligation into a zebrafish P2X4-GFP expression vector based on pEGFP-C1 (kindly provided by Eric Gouaux; [Kawate and Gouaux, 2006]) to replace the zebrafish P2X4 coding region with rP2X7. Transfected clones were grown in DMEM/F-12 with Glutamax medium supplemented with G-418 (Geneticin®, Fisher Scientific), 600 μg/ml and 150 μg/ml during selection and maintenance respectively. […] HEK-293 cells stably expressing human P2X7 ([Adinolfi et al., 2010]) were a kind gift from Elena Adinolfi.
(§2) Cells were plated as for the calcium influx assay (Section 2.4). Culture medium was replaced with low divalent cation containing extracellular solution (ECS-LD; 147 mM NaCl, 10 mM HEPES, 13 mM Glucose, .2 mM CaCl2, 2 mM KCl. pH = 7.4 in MilliQ water) and 5 μM Yopro-1. […] The baseline was measured with a BMG Clariostar instrument for 5–10 cycles, followed by addition of ATP (or BzATP) and recording for at least 30 further cycles (approx. 1 min per data point). The collected responses were normalized to the first data-point recorded after ATP addition. The initial gradient of the dye uptake curve was used to calculate the response to ATP.
The antagonist activity of the 17 compounds (applied at 10 µM) was assayed initially on 1321N1 astrocytoma cells stably expressing human P2X4 receptors by measuring the ATP-induced (applied at 1.2 µM) increase in Fluo-4 fluorescence due to calcium influx via P2X4, using 2 µM BX430 as a positive control (Figure 1A). […] The ATP-induced rate of uptake of YoPro-1 dye was measured upon application of at 300 µM ATP, using .1 µM A740003 as a positive control (Figure 1B).
A small library of 16 commercially available compounds was selected according to the presence of the same scaffold as GP-25, (70% similarity, Tanimoto index) and/or presence of at least one functional group we hypothesized could contribute to GP-25 activity (e.g. carboxylic acid, halogen substituent to the aromatic ring, ester, etc.) (Compounds 18–33; Table 1). […] Although the number of compounds tested was limited by their availability via a commercial source, the numerous ‘hits’ allowed for a basic structure-relationship (SAR) analysis.

rat P2X7 = target: T2, rat P2X7 (Rattus norvegicus, UniProt Q64663); assay: ATP/BzATP-induced YoPro-1 dye uptake assay, rat P2X7; assay type: cell-based; details: for inhibition at 30 µM: approx. % inhibition at 30 μM compound, 300 µM ATP, YoPro-1 uptake, rat P2X7-GFP, read-out: % Inhibition at rP2X7; for antagonist activity at rat P2X7: 30 µM compound, 300 μM ATP
T2 construct: expressed in transfected cells; host or cells: HEK-293 cells stably expressing rat P2X7-GFP (patch clamp)
T2 sequence (Q64663 1-595): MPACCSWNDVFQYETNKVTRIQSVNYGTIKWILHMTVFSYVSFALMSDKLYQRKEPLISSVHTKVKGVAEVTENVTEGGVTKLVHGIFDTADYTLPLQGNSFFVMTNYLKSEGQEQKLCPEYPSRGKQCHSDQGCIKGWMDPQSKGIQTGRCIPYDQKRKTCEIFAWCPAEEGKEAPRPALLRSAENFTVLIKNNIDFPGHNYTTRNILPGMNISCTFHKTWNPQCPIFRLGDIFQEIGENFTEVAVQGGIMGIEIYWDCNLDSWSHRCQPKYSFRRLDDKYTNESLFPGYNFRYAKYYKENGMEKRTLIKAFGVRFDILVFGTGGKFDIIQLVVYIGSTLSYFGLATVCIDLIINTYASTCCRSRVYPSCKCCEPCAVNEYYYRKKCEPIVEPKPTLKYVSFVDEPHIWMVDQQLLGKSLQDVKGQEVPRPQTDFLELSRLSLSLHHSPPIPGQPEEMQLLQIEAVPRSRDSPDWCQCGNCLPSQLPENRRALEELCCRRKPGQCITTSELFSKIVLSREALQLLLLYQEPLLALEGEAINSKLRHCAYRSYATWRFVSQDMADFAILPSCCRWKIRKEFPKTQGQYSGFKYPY
Description: as §1, §2
In order to confirm GP-25 as a competitive (orthosteric) antagonist, BzATP concentration-response curves (ranging between 300 μM and .03 µM) were constructed for rat P2X7-GFP in the YoPro-1 uptake assay in the presence of increasing concentrations of GP-25 (Figure 3A).

Solubility observations = assay type: physicochemical
[1] = P2X7, approx. % inhibition at 30 μM compound, YoPro-1 uptake, 1321N1 (1-17) or HEK (18-33) cells, read-out: % Inhibition at hP2X7
[2] = P2X7, 30 µM compound, YoPro-1, read-out: inhibition of response at human P2X7

Compound | inhibition at 30 µM (human P2X7; [1]) [%] | inhibition at 30 µM (rat P2X7) [%] | further results
O=C1NC(=O)C(CCc2ccncc2)(c2ccccc2)C(=O)N1 [Compound 8] | < 0 |  | 
CC1(C)CC(=O)C2=C(C1)N(CC(=O)O)C1=C(C(=O)CC(C)(C)C1)C2c1ccc(OCc2ccccc2)cc1 [Compound 13] | 29 |  | inhibition at 30 µM (human P2X7; [2]): ≤ 25%
CC(=O)C1=C(C)NC(=S)NC1c1cc(Br)ccc1OCC(=O)O (stereo not shown) [Compound 33] | 18 | 16 | 
O=C(O)CCCC(=O)Nc1ccc(CN2CCOCC2)cc1 [Compound 15] | 11 |  | 
CCOC(=O)C1=C(C)N(C)C2=C(C(=O)c3ccccc32)C1c1cc(OC)c(OC)c(OC)c1 (stereo not shown) [Compound 32] | 55 | 19 | antagonist activity at rat P2X7 (rat P2X7): no activity; reduction in ATP-induced dye uptake at human P2X7 (human P2X7): statistically significant reduction
Cc1ccc(C(=O)C2=C(O)C(=O)N(CC3CCCO3)C2c2cccc(Oc3ccccc3)c2)o1 (stereo not shown) [Compound 4] | < 10 |  | 
Nc1nc(SCC(=O)NCCO)nc2sc3c(c12)CCCC3 [Compound 3] | < 0 |  | 
CC1(C)CC(=O)C2=C(C1)NC1=C(C(=O)CC(C)(C)C1)C2c1ccccc1OCC(=O)O [Compound 18] | < 0 | < 0 | inhibition at 30 µM (human P2X7; [2]): ≤ 25%
O=C(O)COc1ccc(Br)cc1C1C2=C(CCCC2=O)NC2=C1C(=O)CCC2 [Compound 26] | 22 | < 0 | inhibition at 30 µM (human P2X7; [2]): ≤ 25%
COC(=O)C1=C(C)NC2=C(C(=O)c3ccccc32)C1c1ccc(-c2cc([N+](=O)[O-])ccc2Cl)o1 (stereo not shown) [Compound 22] | 69 | < 0 | antagonist activity at rat P2X7 (rat P2X7): no activity; reduction in ATP-induced dye uptake at human P2X7 (human P2X7): statistically significant reduction; solubility (Solubility observations; listed as GP-50): less soluble than GP-47 or GP-25; also recorded: low solubility
O=C(NNC(=S)CC(=O)c1cccs1)c1ccc(O)cc1 [Compound 17] | < 10 |  | 
O=C(Nc1cc(S(=O)(=O)O)cc2cc(S(=O)(=O)O)cc(O)c12)c1ccccc1 [Compound 1] | 41 |  | 
CCSc1nnc(NC(=O)CSc2nnc3c4ccccc4n(C)c3n2)s1 [Compound 7] |  |  | solubility (Solubility observations): very low solubility
CCOC(=O)C1=C(C)NC2=C(C(=O)c3ccccc32)C1c1cc(Br)c(OCc2ccc(F)cc2)c(OC)c1 (stereo not shown) [Compound 24] | 12 | 16 | 
CCOC(=O)C1=C(C)NC2=C(C(=O)c3ccccc32)C1c1cc(Br)ccc1OCC (stereo not shown) [Compound 19] | < 0 | 13 | reduction in ATP-induced dye uptake at human P2X7 (human P2X7): completely abolished the activity
